Laboratory results: patent publication US20170037028A1 (BAYER PHARMA AKTIENGESELLSCHAFT, priority 2013, published 2017)

Target: T1, GLUT1 (Homo sapiens, UniProt P11166)
T1 sequence (P11166 1-492): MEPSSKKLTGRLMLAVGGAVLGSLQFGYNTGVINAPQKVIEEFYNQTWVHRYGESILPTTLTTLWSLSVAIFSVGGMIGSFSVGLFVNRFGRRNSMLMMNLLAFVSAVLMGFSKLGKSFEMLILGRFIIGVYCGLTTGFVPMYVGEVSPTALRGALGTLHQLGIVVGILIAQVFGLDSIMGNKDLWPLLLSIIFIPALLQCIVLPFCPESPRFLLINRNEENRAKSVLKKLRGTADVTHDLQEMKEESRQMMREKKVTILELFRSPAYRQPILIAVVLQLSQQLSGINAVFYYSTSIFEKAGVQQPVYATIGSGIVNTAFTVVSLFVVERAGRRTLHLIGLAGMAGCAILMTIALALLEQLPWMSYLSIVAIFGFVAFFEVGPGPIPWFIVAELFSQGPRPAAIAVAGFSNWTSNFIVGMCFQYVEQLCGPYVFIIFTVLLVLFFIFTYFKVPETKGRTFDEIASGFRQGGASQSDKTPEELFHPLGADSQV
Experiment: Indirect measurement of GLUT1 activity by quantification of intracellular ATP levels (glucose induced ATP increase)
Format: cell-based
Set-up: endogenous in cells; host or cells: DLD1 or CHO-K1
Details: read-out: IC50 regarding glucose induced ATP increase (GLUT1 inhibition)
In short: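 DLD1 or CHO-K1 cells were starved overnight in glucose-free medium with 1% FCS, then combined with an oxidative phosphorylation inhibitor. GLUT1 activity was read as glucose-induced ATP increase, GLUT2 as fructose-induced. Intracellular ATP was quantified by CellTiter-Glo luminescence.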

SMILES	IC50 [nM]
Cc1c(NC(=O)c2cc(C(F)(F)F)nc3c(Cl)cc(Cl)cc23)c(C(F)(F)F)nn1Cc1ccc(F)c(F)c1 [Example 199, 6,8-dichloro-N-[1-(3,4-difluorobenzyl)-5-methyl-3-(trifluoromethyl)-1H-pyrazol-4-yl]-2-(trifluoromethyl)quinoline-4-carboxamide]	441
Cc1nn(Cc2ccc(F)cc2)c(C)c1N(Cc1ccccc1)C(=O)c1cc(C(F)(F)F)nc2ccc(Br)cc12 [Example 200]	539
Cc1ccc2nc(C)cc(C(=O)Nc3c(C)nn(Cc4ccc(C#N)nc4)c3C)c2c1 [Example 201, N-{1-[(6-cyanopyridin-3-yl)methyl]-3,5-dimethyl-1H-pyrazol-4-yl}-2,6-dimethylquinoline-4-carboxamide]	557
Cc1ccc2nc(C)cc(C(=O)Nc3c(C)nn(Cc4ccc(C(=O)NCCO)cc4)c3C)c2c1 [Example 202, N-(1-{4-[(2-hydroxyethyl)carbamoyl]benzyl}-3,5-dimethyl-1H-pyrazol-4-yl)-2,6-dimethylquinoline-4-carboxamide]	562
Cc1ccc2nc(C)cc(C(=O)Nc3c(C(F)(F)F)nn(Cc4ccc(F)c(F)c4)c3C)c2c1 [Example 203, N-[1-(3,4-difluorobenzyl)-5-methyl-3-(trifluoromethyl)-1H-pyrazol-4-yl]-2,6-dimethylquinoline-4-carboxamide]	602
Cc1ccc2nc(C)cc(C(=O)Nc3c(C(F)(F)F)nn(Cc4ccc(F)cc4F)c3C)c2c1 [Example 204, N-[1-(2,4-difluorobenzyl)-5-methyl-3-(trifluoromethyl)-1H-pyrazol-4-yl]-2,6-dimethylquinoline-4-carboxamide]	613
Cc1c(NC(=O)c2cc(C(F)(F)F)nc3c(Cl)cc(Cl)cc23)c(C(F)(F)F)nn1Cc1ccc(F)cc1F [Example 205, 6,8-dichloro-N-[1-(2,4-difluorobenzyl)-5-methyl-3-(trifluoromethyl)-1H-pyrazol-4-yl]-2-(trifluoromethyl)quinoline-4-carboxamide]	613
Cc1ccc2nc(C)cc(C(=O)Nc3c(C)nn(CC4CCCCC4)c3C)c2c1 [Example 206, N-[1-(cyclohexylmethyl)-3,5-dimethyl-1H-pyrazol-4-yl]-2,6-dimethylquinoline-4-carboxamide]	667
Cc1c(NC(=O)c2cc(C(F)(F)F)nc3cc(F)c(F)cc23)c(C(F)(F)F)nn1Cc1ccc(F)c(F)c1 [Example 207, N-[1-(3,4-difluorobenzyl)-5-methyl-3-(trifluoromethyl)-1H-pyrazol-4-yl]-6,7-difluoro-2-(trifluoromethyl)quinoline-4-carboxamide]	688
Cc1ccc2nc(C)cc(C(=O)Nc3c(C)nn(Cc4cccnc4)c3C)c2c1 [Example 208, N-[3,5-dimethyl-1-(pyridin-3-ylmethyl)-1H-pyrazol-4-yl]-2,6-dimethylquinoline-4-carboxamide]	741
Cc1nn(Cc2ccc(F)cc2)c(C)c1NC(=O)c1cc(C(=O)N(C)C)nc2ccccc12 [Example 209, N^4-[1-(4-fluorobenzyl)-3,5-dimethyl-1H-pyrazol-4-yl]-N^2,N^2-dimethylquinoline-2,4-dicarboxamide]	817
Cc1c(NC(=O)c2cc(C(F)(F)F)nc3cc(F)c(F)cc23)c(C(F)(F)F)nn1Cc1ccc(F)cc1F [Example 210, N-[1-(2,4-difluorobenzyl)-5-methyl-3-(trifluoromethyl)-1H-pyrazol-4-yl]-6,7-difluoro-2-(trifluoromethyl)quinoline-4-carboxamide]	849
Cc1nn(Cc2ccc(F)cc2)c(C)c1NC(=O)c1ccnc2ccccc12 [Example 211, N-[1-(4-fluorobenzyl)-3,5-dimethyl-1H-pyrazol-4-yl]quinoline-4-carboxamide]	957

Results, then the compound that gave them:

IC50 [nM]	SMILES
165	Cc1nn(Cc2ccc(F)c(F)c2)c(C)c1NC(=O)c1cc(C(F)(F)F)nc2cc(Br)ccc12 [Example 189, 7-bromo-N-[1-(3,4-difluorobenzyl)-3,5-dimethyl-1H-pyrazol-4-yl]-2-(trifluoromethyl)quinoline-4-carboxamide]
171	Cc1nn(Cc2ccc(F)c(Cl)c2)c(C)c1NC(=O)c1cc(C(F)(F)F)nc2ccc(Br)cc12 [Example 190, 6-bromo-N-[1-(3-chloro-4-fluorobenzyl)-3,5-dimethyl-1H-pyrazol-4-yl]-2-(trifluoromethyl)quinoline-4-carboxamide]
171	Cc1nn(Cc2ccc(F)c(Cl)c2)c(C)c1NC(=O)c1cc(C(F)(F)F)nc2cc(F)c(F)cc12 [Example 191, N-[1-(3-chloro-4-fluorobenzyl)-3,5-dimethyl-1H-pyrazol-4-yl]-6,7-difluoro-2-(trifluoromethyl)quinoline-4-carboxamide]
177	COc1ccc2nccc(C(=O)Nc3c(C)nn(Cc4ccc(F)cc4)c3C)c2c1 [Example 192, N-[1-(4-fluorobenzyl)-3,5-dimethyl-1H-pyrazol-4-yl]-6-methoxyquinoline-4-carboxamide]
215	Cc1c(NC(=O)c2cc(C(F)(F)F)nc3cc(F)c(F)cc23)c(C(F)(F)F)nn1Cc1ccc(F)cc1 [Example 193, 6,7-difluoro-N-[1-(4-fluorobenzyl)-5-methyl-3-(trifluoromethyl)-1H-pyrazol-4-yl]-2-(trifluoromethyl)quinoline-4-carboxamide]
229	COCCN(C(=O)c1cc(C(F)(F)F)nc2ccc(Br)cc12)c1c(C)nn(Cc2ccc(F)cc2)c1C [Example 194, 6-bromo-N-[1-(4-fluorobenzyl)-3,5-dimethyl-1H-pyrazol-4-yl]-N-(2-methoxyethyl)-2-(trifluoromethyl)quinoline-4-carboxamide]
272	Cc1nn(CC2CCCCC2)c(C)c1NC(=O)c1cc(C(F)(F)F)nc2cc(F)c(F)cc12 [Example 195, N-[1-(cyclohexylmethyl)-3,5-dimethyl-1H-pyrazol-4-yl]-6,7-difluoro-2-(trifluoromethyl)quinoline-4-carboxamide]
286	Cc1nn(Cc2cccnc2)c(C)c1NC(=O)c1cc(C(F)(F)F)nc2cc(F)c(F)cc12 [Example 196, N-[3,5-dimethyl-1-(pyridin-3-ylmethyl)-1H-pyrazol-4-yl]-6,7-difluoro-2-(trifluoromethyl)quinoline-4-carboxamide]
333	Cc1c(NC(=O)c2cc(C(F)(F)F)nc3ccc(Br)cc23)c(C(F)(F)F)nn1Cc1ccc(F)c(F)c1 [Example 197, 6-bromo-N-[1-(3,4-difluorobenzyl)-5-methyl-3-(trifluoromethyl)-1H-pyrazol-4-yl]-2-(trifluoromethyl)quinoline-4-carboxamide]
438	Cc1nn(Cc2ccc(F)cc2)c(C)c1NC(=O)c1cc(N2CCOCC2)nc2ccccc12 [Example 198, N-[1-(4-fluorobenzyl)-3,5-dimethyl-1H-pyrazol-4-yl]-2-(morpholin-4-yl)quinoline-4-carboxamide]
0.6	Cc1nn(Cc2ccc(C#N)cc2)c(C)c1NC(=O)c1cc(C(N)=O)nc2cc(F)c(Cl)cc12 [Example 212, 6-chloro-N^4-[1-(4-cyanobenzyl)-3,5-dimethyl-1H-pyrazol-4-yl]-7-fluoroquinoline-2,4-dicarboxamide]
0.7	Cc1c(NC(=O)c2cc(C(N)=O)nc3cc(F)c(Cl)cc23)c(C(F)(F)F)nn1Cc1ccc(C#N)cc1 [Example 213, 6-chloro-N^4-[1-(4-cyanobenzyl)-5-methyl-3-(trifluoromethyl)-1H-pyrazol-4-yl]-7-fluoroquinoline-2,4-dicarboxamide]
1.1	COc1ccc(Cn2nc(C)c(NC(=O)c3cc(C(N)=O)nc4cc(F)c(Cl)cc34)c2C)cc1 [Example 214, 6-chloro-7-fluoro-N^4-[1-(4-methoxybenzyl)-3,5-dimethyl-1H-pyrazol-4-yl]quinoline-2,4-dicarboxamide]
1.6	Cc1nn(Cc2ccccc2C#N)c(C)c1NC(=O)c1cc(C(N)=O)nc2cc(F)c(Cl)cc12 [Example 215, 6-chloro-N^4-[1-(2-cyanobenzyl)-3,5-dimethyl-1H-pyrazol-4-yl]-7-fluoroquinoline-2,4-dicarboxamide]
2.1	Cc1c(NC(=O)c2cc(C(N)=O)nc3cc(F)c(F)cc23)c(C(F)(F)F)nn1Cc1ccc(C#N)cc1 [Example 216, N^4-[1-(4-cyanobenzyl)-5-methyl-3-(trifluoromethyl)-1H-pyrazol-4-yl]-6,7-difluoroquinoline-2,4-dicarboxamide]
3.2	Cc1nn(Cc2ccc(S(C)(=O)=O)cc2)c(C)c1NC(=O)c1cc(C(F)(F)F)nc2ccc(Br)cc12 [Example 217, 6-bromo-N-{3,5-dimethyl-1-[4-(methylsulfonyl)benzyl]-1H-pyrazol-4-yl}-2-(trifluoromethyl)quinoline-4-carboxamide]
3.4	Cc1nn(Cc2ccc(C#N)c(F)c2)c(C)c1NC(=O)c1cc(C(F)(F)F)nc2ccc(Br)cc12 [Example 218, 6-bromo-N-[1-(4-cyano-3-fluorobenzyl)-3,5-dimethyl-1H-pyrazol-4-yl]-2-(trifluoromethyl)quinoline-4-carboxamide]
5.4	Cc1c(NC(=O)c2cc(C(N)=O)nc3ccc(F)cc23)c(C(F)(F)F)nn1Cc1ccc(C#N)cc1 [Example 219, N^4-[1-(4-cyanobenzyl)-5-methyl-3-(trifluoromethyl)-1H-pyrazol-4-yl]-6-fluoroquinoline-2,4-dicarboxamide]
